In US4200575A, “7[(2-Thiazolyl)-2-(oxoimino)acetamido]cephalosporin derivatives” (Takeda Chemical Industries, Ltd., priority 1977, dated 1980):

Experiments:
Assay in all cases: Minimal inhibitory concentration (M.I.C.), agar dilution method
Conditions in all cases: TSA, inoculum 10^7 /ml
E. coli 0-111 = assay type: cell-based, Escherichia coli
Outline: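 MIC against E. coli O-111 was determined by agar dilution.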

K. pneumoniae GN 3835 = assay type: cell-based, Klebsiella pneumoniae
Text: (§1) (a) Determination of minimal inhibitory concentrations (Tables 1 to 8):
(§2) Procedure: agar dilution method

K. pneumoniae DT = assay type: cell-based, Klebsiella pneumoniae
Text: as §1, §2

P. morganii IFO 3168 = assay type: cell-based, Proteus morganii
Text: as §1, §2

C. freundii GN 1706 = assay type: cell-based, Citrobacter freundii
Text: as §1, §2

C. freundii GN 99 = assay type: cell-based, Citrobacter freundii
Text: as §1, §2

E. coli NIHJ JC-2 = assay type: cell-based, Escherichia coli
Text: as §1, §2

E. coli T-7 = assay type: cell-based, Escherichia coli
Text: as §1, §2

P. vulgaris IFO 3988 = assay type: cell-based, Proteus vulgaris
Text: as §1, §2

P. vulgaris GN 4413 = assay type: cell-based, Proteus vulgaris
Text: as §1, §2

P. mirabilis GN 4359 = assay type: cell-based, Proteus mirabilis
Text: as §1, §2

S. aureus 1840 = assay type: cell-based, Staphylococcus aureus
Text: as §1, §2

S. aureus 209P = assay type: cell-based, Staphylococcus aureus
Text: as §1, §2

S. marcescens IFO 12648 = assay type: cell-based, Serratia marcescens
Text: as §1, §2

S. marcescens TN 24 = assay type: cell-based, Serratia marcescens
Text: as §1, §2

E. cloacae TN 1282 = assay type: cell-based, Enterobacter cloacae
Text: as §1, §2

P. rettgeri TN 338 = assay type: cell-based, Proteus rettgeri
Text: as §1, §2

P. rettgeri GN4733 = assay type: cell-based, Proteus rettgeri
Text: as §1, §2

Row | Structure (SMILES) | minimal inhibitory concentration (M.I.C.) (E. coli 0-111) | minimal inhibitory concentration (M.I.C.) (K. pneumoniae GN 3835) | minimal inhibitory concentration (M.I.C.) (K. pneumoniae DT) | minimal inhibitory concentration (M.I.C.) (P. morganii IFO 3168) | minimal inhibitory concentration (M.I.C.) (C. freundii GN 1706) | minimal inhibitory concentration (M.I.C.) (C. freundii GN 99) | minimal inhibitory concentration (M.I.C.) (E. coli NIHJ JC-2) | minimal inhibitory concentration (M.I.C.) (E. coli T-7) | minimal inhibitory concentration (M.I.C.) (P. vulgaris IFO 3988) | minimal inhibitory concentration (M.I.C.) (P. vulgaris GN 4413) | minimal inhibitory concentration (M.I.C.) (P. mirabilis GN 4359) | minimal inhibitory concentration (M.I.C.) (S. aureus 1840) | minimal inhibitory concentration (M.I.C.) (S. aureus 209P) | minimal inhibitory concentration (M.I.C.) (S. marcescens IFO 12648) | minimal inhibitory concentration (M.I.C.) (S. marcescens TN 24) | minimal inhibitory concentration (M.I.C.) (E. cloacae TN 1282) | minimal inhibitory concentration (M.I.C.) (P. rettgeri TN 338) | minimal inhibitory concentration (M.I.C.) (P. rettgeri GN4733)
1 | CCNC(=O)O/N=C(\C(=O)NC1C(=O)N2C(C(=O)O)=C(C)CSC12)c1csc(=N)[nH]1 (stereo not drawn) [Example II - 11] | 1.56 | 3.13 | 1.56 | 25 | 12.5 | 6.25 | 6.25 | 12.5 | 3.13 | 50 | 1.56 | 25 | 25 | 100 | 100 | 25 | 0.05 | 0.39
2 | CC1=C(C(=O)O)N2C(=O)C(NC(=O)/C(=N\OC(=O)NC(C)C)c3csc(=N)[nH]3)C2SC1 (stereo not drawn) [Example II - 19] | 3.13 | 6.25 | 3.13 | 50 | 12.5 | 12.5 | 6.25 | 25 | 12.5 | 50 | 3.13 | 25 | 25 | 100 | > 100 | 100 | 0.1 | 0.39
3 | CNC(=O)O/N=C(\C(=O)NC1C(=O)N2C(C(=O)O)=C(CSc3nnc(CC(N)=O)s3)CSC12)c1csc(=N)[nH]1 (stereo not drawn) [Example IV - 6] | ≤ 0.2 | 0.39 | ≤ 0.2 | ≤ 0.2 | ≤ 0.78 | ≤ 0.2 | ≤ 0.2 | 3.13 | ≤ 0.2 | 25 | 0.39 | 3.13 | 1.56 | 3.13 | 3.15 | 3.13 | ≤ 0.2 | 0.39
4 | CCCCNC(=O)O/N=C(\C(=O)NC1C(=O)N2C(C(=O)O)=C(COC(C)=O)CSC12)c1csc(=N)[nH]1 (stereo not drawn) [Example II - 20] | 0.024 | 0.39 | 0.05 | 0.39 | 0.39 | 0.39 | 0.1 | 3.13 | 0.2 | 12.5 | 0.1 | 1.56 | 1.56 | 6.25 | 12.5 | 6.25 | ≤ 0.012 | 0.05
5 | CNC(=O)O/N=C(\C(=O)NC1C(=O)N2C(C(=O)O)=C(CSc3nnc(C)s3)CSC12)c1csc(=N)[nH]1 (stereo not drawn) [Example II - 5, sodium 7-[2-(2-imino-4-thiazolin-4-yl)-2-methylcarbamoyloximinoacetamido]-3-(2-methyl-1,3,4-thiadiazol-5-yl)thiomethyl-3-cephem-4-carboxylate (syn-isomer)] | 0.1 | 0.78 | 0.1 | 0.39 | 1.56 | 0.39 | 0.39 | 3.13 | 0.39 | 12.5 | 0.78 | 3.13 | 3.13 | 3.13 | 0.78 | 1.56 | ≤ 0.05 | 0.78
